Assay results from ChEMBL document CHEMBL1131475, “Discovery of ritonavir, a potent inhibitor of HIV protease with high oral bioavailability and clinical efficacy” (J Med Chem, 1998).

Legend:
in vivo [1] = settings: rat, plasma, po
[2] = Oral bioavailability in rat; assay type: ADME, organism-based; settings: in vivo
in vivo [3] = settings: rat, plasma, po; remark: listed apart in the source
in vivo [4] = settings: rat, plasma, iv
in vivo [5] = settings: rat, plasma, po, 10 mg/kg

| SMILES | AUC (in vivo [1]) [ng·h/mL] | bioavailability [2] [%] | Tmax (in vivo [3]) [min] | half-life (in vivo [4]) [min] | Cmax (in vivo [5]) [nM] |
| --- | --- | --- | --- | --- | --- |
| Cc1cccc(CN(C)C(=O)NC(C(=O)N[C@@H](Cc2ccccc2)[C@@H](O)C[C@H](Cc2ccccc2)NC(=O)OCc2cccnc2)C(C)C)n1 (stereo not given in full) | 950 | 16 | 15 | 13.2 | 2420 |
| COc1ccc(CN(C)C(=O)NC(C(=O)N[C@@H](Cc2ccccc2)C[C@H](O)[C@H](Cc2ccccc2)NC(=O)OCc2cccnc2)C(C)C)cn1 (stereo not given in full) | 320 | 10 | 6 | 13.2 | 1750 |
| COCc1nc(COC(=O)NC(C(=O)N[C@@H](Cc2ccccc2)[C@@H](O)C[C@H](Cc2ccccc2)NC(=O)OCc2cccnc2)C(C)C)cs1 (stereo not given in full) | 630 | 10 | 13.8 | 16.2 | 1790 |
| COc1ccc(CN(C)C(=O)NC(C(=O)N[C@@H](Cc2ccccc2)C[C@H](O)[C@H](Cc2ccccc2)NC(=O)OCc2cccnc2)C(C)C)nc1 (stereo not given in full) | 290 | 5.7 | 6 | 34.2 | 1050 |
| COc1cncc(CN(C)C(=O)NC(C(=O)N[C@@H](Cc2ccccc2)C[C@H](O)[C@H](Cc2ccccc2)NC(=O)OCc2cccnc2)C(C)C)c1 (stereo not given in full) | 50 | 0.4 | 9 | 16.8 | 180 |
| CC(C)c1ncc(COC(=O)NC(C(=O)N[C@@H](Cc2ccccc2)[C@@H](O)C[C@H](Cc2ccccc2)NC(=O)OCc2cccnc2)C(C)C)s1 (stereo not given in full) | 30 | 0.8 | 12 | 37.2 | 100 |
| CCc1cccc(COC(=O)NC(C(=O)N[C@@H](Cc2ccccc2)[C@@H](O)C[C@H](Cc2ccccc2)NC(=O)OCc2cccnc2)C(C)C)n1 (stereo not given in full) | 810 | 16 | 15 | 44.4 | 1260 |
| CC(C)C(NC(=O)OCc1ccccn1)C(=O)N[C@@H](Cc1ccccc1)C[C@H](O)[C@H](Cc1ccccc1)NC(=O)OCc1cncs1 (stereo not given in full) | 4240 | 47 | 22.2 | 73.8 | 2040 |
| Cc1ncc(COC(=O)N[C@@H](Cc2ccccc2)C[C@H](O)[C@H](Cc2ccccc2)NC(=O)C(NC(=O)N(C)Cc2csc(C(C)C)n2)C(C)C)s1 (stereo not given in full) | 2370 | 28 | 42 | 27.6 | 2080 |
| Cc1cccc(COC(=O)NC(C(=O)N[C@@H](Cc2ccccc2)C[C@H](O)[C@H](Cc2ccccc2)NC(=O)OCc2cccnc2)C(C)C)n1 (stereo not given in full) | 900 | 16 | 6 | 117 | 1740 |
| CC(C)c1nc(CN(C)C(=O)NC(C(=O)N[C@@H](Cc2ccccc2)C[C@H](O)[C@H](Cc2ccccc2)NC(=O)OCc2cnco2)C(C)C)cs1 (stereo not given in full) | 2650 | 23 | 34.8 | 33.6 | 1590 |
| CC(C)c1nc(CN(C)C(=O)NC(C(=O)N[C@@H](Cc2ccccc2)[C@@H](O)C[C@H](Cc2ccccc2)NC(=O)OCc2cccnc2)C(C)C)cs1 (stereo not given in full) | 950 | 24 | 15 | 45 | 1650 |
| CCc1cccc(CN(C)C(=O)NC(C(=O)N[C@@H](Cc2ccccc2)[C@@H](O)C[C@H](Cc2ccccc2)NC(=O)OCc2cccnc2)C(C)C)n1 (stereo not given in full) | 730 | 23 | 9 | 31.2 | 1530 |
| Cc1nc(CN(C)C(=O)NC(C(=O)N[C@@H](Cc2ccccc2)C[C@H](O)[C@H](Cc2ccccc2)NC(=O)OCc2cccnc2)C(C)C)cs1 (stereo not given in full) | 1060 | 26 | 9 | 43.2 | 2100 |
| CCc1nc(CN(C)C(=O)NC(C(=O)N[C@@H](Cc2ccccc2)C[C@H](O)[C@H](Cc2ccccc2)NC(=O)OCc2cncs2)C(C)C)co1 (stereo not given in full) | 8910 | 57 | 19.8 | 120 | 8010 |
| CC(C)c1nc(CN(C)C(=O)NC(C(=O)N[C@@H](Cc2ccccc2)[C@@H](O)C[C@H](Cc2ccccc2)NC(=O)OCc2cncs2)C(C)C)cs1 (stereo not given in full) | 1700 | 16 | 105 | 120 | 2290 |
| CCc1nc(CN(C)C(=O)NC(C(=O)N[C@@H](Cc2ccccc2)C[C@H](O)[C@H](Cc2ccccc2)NC(=O)OCc2cccnc2)C(C)C)cs1 (stereo not given in full) | 1050 | 17 | 15 | 72 | 1490 |
| Cc1ncc(COC(=O)NC(C(=O)N[C@@H](Cc2ccccc2)[C@@H](O)C[C@H](Cc2ccccc2)NC(=O)OCc2cccnc2)C(C)C)nc1C (stereo not given in full) | 120 | 5.7 | 12 | 18 | 350 |
| COc1cncc(CN(C)C(=O)NC(C(=O)N[C@@H](Cc2ccccc2)[C@@H](O)C[C@H](Cc2ccccc2)NC(=O)OCc2cccnc2)C(C)C)c1 (stereo not given in full) | 50 | 0.8 | 6 | 10.2 | 440 |
| COCc1nc(CN(C)C(=O)NC(C(=O)N[C@@H](Cc2ccccc2)[C@@H](O)C[C@H](Cc2ccccc2)NC(=O)OCc2cccnc2)C(C)C)cs1 (stereo not given in full) | 1240 | 16 | 30 | 33.6 | 2290 |
| Cc1ncc(CN(C)C(=O)NC(C(=O)N[C@@H](Cc2ccccc2)C[C@H](O)[C@H](Cc2ccccc2)NC(=O)OCc2cccnc2)C(C)C)nc1C (stereo not given in full) | 330 | 6.4 | 15 | 18 | 1130 |

Other lines, results leading:

| AUC (in vivo [1]) [ng·h/mL] | bioavailability [2] [%] | Tmax (in vivo [3]) [min] | half-life (in vivo [4]) [min] | Cmax (in vivo [5]) [nM] | SMILES |
| --- | --- | --- | --- | --- | --- |
| 500 | 9.3 | 24 | 64.2 | 1020 | CC(C)C(NC(=O)N(C)Cc1ccccn1)C(=O)N[C@@H](Cc1ccccc1)[C@@H](O)C[C@H](Cc1ccccc1)NC(=O)OCc1ccoc1 (stereo not given in full) |
| 6290 | 60 | 72 | 24 | 2480 | CC(C)C(NC(=O)N(C)Cc1csc(C2CCC2)n1)C(=O)N[C@@H](Cc1ccccc1)C[C@H](O)[C@H](Cc1ccccc1)NC(=O)OCc1cncs1 (stereo not given in full) |
| 1850 | 35 | 9 | 15.6 | 2050 | CC(C)c1nc(CN(C)C(=O)NC(C(=O)N[C@@H](Cc2ccccc2)C[C@H](O)[C@H](Cc2ccccc2)NC(=O)OCc2cnco2)C(C)C)co1 (stereo not given in full) |
| 190 | 6 | 18 | 12.6 | 860 | Cc1cnc(COC(=O)NC(C(=O)N[C@@H](Cc2ccccc2)C[C@H](O)[C@H](Cc2ccccc2)NC(=O)OCc2cccnc2)C(C)C)cn1 (stereo not given in full) |
| 1660 | 32 | 17.4 | 40.8 | 3390 | Cc1cccc(CN(C)C(=O)NC(C(=O)N[C@@H](Cc2ccccc2)C[C@H](O)[C@H](Cc2ccccc2)NC(=O)OCc2cccnc2)C(C)C)n1 (stereo not given in full) |
| 570 | 8.5 | 9 | 39.6 | 2530 | CC(C)C(NC(=O)OCc1nccs1)C(=O)N[C@@H](Cc1ccccc1)C[C@H](O)[C@H](Cc1ccccc1)NC(=O)OCc1cccnc1 (stereo not given in full) |
| 610 | 7.5 | 19.8 | 44.4 | 1150 | Cc1cccc(COC(=O)NC(C(=O)N[C@@H](Cc2ccccc2)[C@@H](O)C[C@H](Cc2ccccc2)NC(=O)OCc2cccnc2)C(C)C)n1 (stereo not given in full) |
| 20 | 0.7 | 6 | 27.6 | 150 | CC(C)c1ncc(COC(=O)NC(C(=O)N[C@@H](Cc2ccccc2)C[C@H](O)[C@H](Cc2ccccc2)NC(=O)OCc2cccnc2)C(C)C)s1 (stereo not given in full) |
| 240 | 6.3 | 6 | 34.2 | 450 | Cc1ccc(COC(=O)NC(C(=O)N[C@@H](Cc2ccccc2)[C@@H](O)C[C@H](Cc2ccccc2)NC(=O)OCc2cccnc2)C(C)C)cn1 (stereo not given in full) |
| 70 | 1.5 | 6 | 71.4 | 300 | COc1cncc(COC(=O)NC(C(=O)N[C@@H](Cc2ccccc2)[C@@H](O)C[C@H](Cc2ccccc2)NC(=O)OCc2cccnc2)C(C)C)c1 (stereo not given in full) |
| 1220 | 22 | 9 | 73.2 | 2180 | CC(C)C(NC(=O)N(C)Cc1ccccn1)C(=O)N[C@@H](Cc1ccccc1)C[C@H](O)[C@H](Cc1ccccc1)NC(=O)OCc1cccnc1 (stereo not given in full) |
| 1600 | 31 | 30 | 54 | 1680 | CC(NC(=O)N(C)Cc1csc(C(C)C)n1)C(=O)N[C@@H](Cc1ccccc1)C[C@H](O)[C@H](Cc1ccccc1)NC(=O)OCc1cncs1 (stereo not given in full) |
| 360 | 9.2 | 27 | 27 | 410 | Cc1ncsc1CCOC(=O)NC(C(=O)N[C@@H](Cc1ccccc1)[C@@H](O)C[C@H](Cc1ccccc1)NC(=O)OCc1cccnc1)C(C)C (stereo not given in full) |
| 870 | 20 | 12 | 44.4 | 1460 | CCc1nc(CN(C)C(=O)NC(C(=O)N[C@@H](Cc2ccccc2)[C@@H](O)C[C@H](Cc2ccccc2)NC(=O)OCc2cccnc2)C(C)C)cs1 (stereo not given in full) |
| 30 | 0.3 | 6 | 30 | 140 | CC(C)C(NC(=O)OCc1cncc(N)c1)C(=O)N[C@@H](Cc1ccccc1)C[C@H](O)[C@H](Cc1ccccc1)NC(=O)OCc1cccnc1 (stereo not given in full) |
| 1080 | 15 | 15 | 89.4 | 2010 | Cc1nc(CN(C)C(=O)NC(C(=O)N[C@@H](Cc2ccccc2)[C@@H](O)C[C@H](Cc2ccccc2)NC(=O)OCc2cccnc2)C(C)C)cs1 (stereo not given in full) |
